In US12391706B2, “Multi-target tyrosine kinase inhibitor” (SHENZHEN NEPTUNUS PHARMACEUTICAL RESEARCH INSTITUTE CO., …, priority 2020, dated 2025):

Key:
[1] = low dose (10 mg·kg^−1), solution; cited from earlier work
[2] = cited from earlier work
[3] = system: VEGFR; details: cited from earlier work
[4] = Solubility test (water), Chinese Pharmacopoeia 2015; format: physicochemical; details: 25° C.±2° C., dissolution within 30 minutes
Procedure: The series of compounds synthesized in Examples 1-24 were subjected to solubility test (water), according to the solubility test methods in Chinese Pharmacopoeia, 2015 Edition. The specific test operations and evaluation criteria are as follows: An appropriate amount (1 mg-10 mg) of finely powdered compound was weighed, placed in a certain volume of solvent at 25° C.±2° C., and shaken vigorously for 30 seconds every 5 minutes; the dissolution within 30 minutes was observed. It was considered completely dissolved if there were no visible particles or droplets of the solute. [table]

[5] = system: MKN-45 gastric cancer cells; assay: Gastric cancer cell MKN45 xenograft model; format: in vivo, nude mice; details: oral 100 mg·kg^−1 once a day for 14 days
From the text: • 1. Compounds (td32-4, td32-4P3, td32-4P6, td32-4P9, td32-4P10) were selected for in vivo activity evaluation at a single concentration. The animal model was gastric cancer cell MKN45 xenograft model.
(§1) Test method: 5×10^6 MKN-45 gastric cancer cells were inoculated under the fat pad of the right rib of nude mice, and the tumor formation was observed. Two weeks after the inoculation, the tumor-bearing mice were divided into groups and orally administered with td32-4, td32-4P3, td32-4P6, td32-4P9, and td32-4P10 at a dose of 100 mg·kg^−1, once a day for 14 days, respectively. Tumor volumes were measured with a caliper and recorded.

[6] = target: c-Kit (Homo sapiens, UniProt P10721); details: cited from earlier work
c-Kit, sequence (P10721 26-976): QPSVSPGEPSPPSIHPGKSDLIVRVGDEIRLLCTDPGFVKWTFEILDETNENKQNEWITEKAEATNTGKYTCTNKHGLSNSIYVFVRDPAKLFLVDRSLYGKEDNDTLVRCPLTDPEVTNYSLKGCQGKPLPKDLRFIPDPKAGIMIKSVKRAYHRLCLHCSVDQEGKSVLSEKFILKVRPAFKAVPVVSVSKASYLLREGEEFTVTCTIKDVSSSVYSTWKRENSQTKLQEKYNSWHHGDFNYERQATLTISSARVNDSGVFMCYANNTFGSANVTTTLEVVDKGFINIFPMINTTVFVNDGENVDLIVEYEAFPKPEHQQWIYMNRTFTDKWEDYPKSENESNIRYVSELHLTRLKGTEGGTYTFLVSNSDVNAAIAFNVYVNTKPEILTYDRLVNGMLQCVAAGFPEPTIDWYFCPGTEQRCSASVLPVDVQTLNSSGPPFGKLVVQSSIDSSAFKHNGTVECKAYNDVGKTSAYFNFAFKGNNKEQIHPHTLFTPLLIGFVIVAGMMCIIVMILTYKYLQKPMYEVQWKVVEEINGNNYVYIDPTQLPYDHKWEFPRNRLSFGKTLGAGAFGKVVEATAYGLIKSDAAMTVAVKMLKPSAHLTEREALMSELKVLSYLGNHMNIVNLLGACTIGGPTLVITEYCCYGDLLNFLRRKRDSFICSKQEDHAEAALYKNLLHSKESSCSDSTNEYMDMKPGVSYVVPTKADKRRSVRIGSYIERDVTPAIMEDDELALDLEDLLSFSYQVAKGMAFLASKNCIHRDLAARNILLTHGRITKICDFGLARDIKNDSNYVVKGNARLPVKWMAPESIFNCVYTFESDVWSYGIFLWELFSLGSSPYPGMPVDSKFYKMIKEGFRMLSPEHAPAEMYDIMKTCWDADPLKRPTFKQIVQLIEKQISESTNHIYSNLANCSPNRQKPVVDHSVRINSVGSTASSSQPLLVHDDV

[7] = target: c-Met (Homo sapiens, UniProt P08581); details: cited from earlier work
c-Met, sequence (P08581 25-1390): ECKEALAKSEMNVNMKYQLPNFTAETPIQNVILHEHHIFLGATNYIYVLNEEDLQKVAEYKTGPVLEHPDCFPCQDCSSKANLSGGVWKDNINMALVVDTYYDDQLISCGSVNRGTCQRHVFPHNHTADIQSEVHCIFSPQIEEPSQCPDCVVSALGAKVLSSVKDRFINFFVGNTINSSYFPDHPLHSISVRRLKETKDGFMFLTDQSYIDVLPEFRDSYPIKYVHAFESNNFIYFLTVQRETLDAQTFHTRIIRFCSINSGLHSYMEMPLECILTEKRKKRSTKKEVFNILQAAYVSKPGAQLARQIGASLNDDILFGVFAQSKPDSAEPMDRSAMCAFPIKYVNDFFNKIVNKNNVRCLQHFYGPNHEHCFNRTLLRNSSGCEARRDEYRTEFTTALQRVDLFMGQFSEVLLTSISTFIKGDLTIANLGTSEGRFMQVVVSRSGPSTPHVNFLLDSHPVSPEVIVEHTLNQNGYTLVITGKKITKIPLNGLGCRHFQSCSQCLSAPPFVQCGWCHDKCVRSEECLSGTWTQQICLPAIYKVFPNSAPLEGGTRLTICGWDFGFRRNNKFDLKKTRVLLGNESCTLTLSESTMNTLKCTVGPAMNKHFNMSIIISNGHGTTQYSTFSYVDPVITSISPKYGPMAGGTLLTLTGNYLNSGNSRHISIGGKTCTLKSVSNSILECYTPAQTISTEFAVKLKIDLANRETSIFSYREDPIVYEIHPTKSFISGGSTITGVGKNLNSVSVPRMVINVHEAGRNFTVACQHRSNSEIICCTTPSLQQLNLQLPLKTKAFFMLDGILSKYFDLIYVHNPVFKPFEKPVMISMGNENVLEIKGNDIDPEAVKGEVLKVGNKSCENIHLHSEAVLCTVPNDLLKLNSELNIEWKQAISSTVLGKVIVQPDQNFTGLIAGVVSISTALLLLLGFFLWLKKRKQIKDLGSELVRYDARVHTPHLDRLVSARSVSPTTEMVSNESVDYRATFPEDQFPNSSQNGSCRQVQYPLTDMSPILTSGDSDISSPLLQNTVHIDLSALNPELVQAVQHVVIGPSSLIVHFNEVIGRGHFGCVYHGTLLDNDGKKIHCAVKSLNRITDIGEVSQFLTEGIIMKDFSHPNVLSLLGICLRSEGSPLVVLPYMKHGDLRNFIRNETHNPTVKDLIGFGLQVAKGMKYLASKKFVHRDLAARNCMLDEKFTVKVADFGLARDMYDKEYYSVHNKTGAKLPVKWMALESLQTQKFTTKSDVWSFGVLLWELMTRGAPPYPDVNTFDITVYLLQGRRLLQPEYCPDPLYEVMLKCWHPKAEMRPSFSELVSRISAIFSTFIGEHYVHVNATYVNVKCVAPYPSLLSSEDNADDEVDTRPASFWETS

[8] = system: multiple tumor cell models; details: cited from earlier work
[9] = system: H358; assay: H358 nude mouse xenograft model; format: in vivo; details: 50 mg/kg * 21 d, i.g, QD
Procedure: as §1
(§2) The compound td32-4P10 was selected for in vivo activity evaluation. The tumor inhibitory activity data of td32-4P10 were tested in MV-4-11, H358 and H82 nude mouse xenograft model, respectively. Meanwhile, the changes in tumor volume during the treatment, and the changes in body weight of the nude mice induced by the drug during the treatment were measured. After the treatment, the tumor weights were counted. The tumor anatomical images after the treatment were recorded.

[10] = system: H82; assay: H82 nude mouse xenograft model; format: in vivo; details: 50 mg/kg * 14 d, i.g, QD
Procedure: as §1, §2

[11] = In vivo transformation / pharmacokinetic study in SD rats; details: for time to almost complete conversion into td32-4 in vivo: oral 200 mg·kg^−1
From the text: The compounds of the present invention have improved solubility by introducing a hydrophilic functional group into the structure of td32-4 through an ester bond. After oral administration, the compounds need to be converted into td32-4 in the physical and chemical environment in vivo to exert pharmacological effects. In this example, some representative compounds were selected for in vivo pharmacokinetic studies in SD rats, and compared with direct oral administration of td32-4. The experiment was performed at high (200 mg·kg^−1) and low (10 mg·kg^−1) doses. 5 mg of the test sample was placed into a glass bottle. 1 mL of DMA (dimethylacetamide) was added and vortexed to dissolve the solid completely. 1.5 mL of PEG400 was added, vortexed and mixed well. 2.5 mL of physiological saline for injection was added, vortexed, mixed well. The mixture was filtered with a filter membrane (PALL, Nylon, 0.45 μm) to obtain a colorless and clear solution. The test sample was administered to experimental animals (n=3) by tail vein injection at a dose of 5 mg·kg^−1 (1 mg·mL^−1). An appropriate amount of the test sample was placed into a glass bottle. PEG400 was added, vortexed and mixed well. The mixture was sonicated to obtain a clear solution. The test sample was administered to experimental animals (n=3) by gavage at a dose of 10 mg·kg^−1 and 200 mg·kg^−1, respectively. SD rats were weighed before administration, and the dose was calculated according to the body weight. They were administered by intravenous injection or by gavage. Blood was collected through the submandibular vein or other suitable ways, at intervals of 0, 0.083, 0.25, 0.5, 1, 2, 4, 8, 12, 24 hours. About 0.20 mL of each sample was collected, anticoagulated with EDTA-K2, and placed on ice after collection, and centrifuged within 1 hour to separate plasma (centrifugation conditions: 6800 g, 6 minutes, 2-8° C.). Plasma samples were stored in a −80° C. freezer prior to analysis. The blood drug concentration of each sample was analyzed using LC-MS/MS. […]

[12] = system: MV-4-11; assay: MV-4-11 nude mouse xenograft model; format: in vivo; details: MV-4-11 xenograft, 50 mg/kg * 21 d, i.g, QD
Procedure: as §1, §2

SMILES | oral bioavailability F [1] | water solubility [2] | inhibitory activity [3] | Water solubility test Result [4] | tumor inhibitory effect (tumor volume) [5] | inhibitory activity [6] | inhibitory activity [7] | anti-proliferative activity [8] | T/C (%) [9] | TGI (%) [9] | T/C (%) [10] | TGI (%) [10] | time to almost complete conversion into td32-4 in vivo [11] | T/C (%) [12] | TGI (%) [12] | conversion into td32-4 in vivo ([11]; oral 10 mg·kg^−1)
O=C(Nc1ccc(F)cc1)C1(C(=O)Nc2ccc(Oc3ccnc4cc(-c5cnn(CCO)c5)sc34)c(F)c2)CC1 [td32-4] | 71.6% | extremely poor water solubility | potent inhibitory activity | G (1 g of solute is insoluble in 10000 mL of solvent) | did not show significant activity | potent inhibitory activity | potent inhibitory activity | potent anti-proliferative activity | – | – | – | – | – | – | – | –
CC(C)C(N)C(=O)OCCn1cc(-c2cc3nccc(Oc4ccc(NC(=O)C5(C(=O)Nc6ccc(F)cc6)CC5)cc4F)c3s2)cn1 (stereo not drawn) [td32-4P10, 2-(4-(7-(2-fluoro-4-(1-((4-fluorophenyl)carbamoyl)cyclopropane-1-carboxamide)phenoxy)thieno[3,2-b]pyridin-2-yl)-1H-pyrazolyl-1-yl)ethyl valinate] | – | – | – | C (1 g of solute is soluble in 10~30 mL of sovent) | potent tumor inhibitory effect | – | – | – | 6.6% | 112% | 11% | 92% | ≤ 18 h | 3.4% | 109% | –
CN(C)CC(=O)OCCn1cc(-c2cc3nccc(Oc4ccc(NC(=O)C5(C(=O)Nc6ccc(F)cc6)CC5)cc4F)c3s2)cn1 [td32-4P3, 2-(4-(7-(2-fluoro-4-(1-((4-fluorophenyl)carbamoyl)cyclopropane-1-carboxamide)phenoxy)thieno[3,2-b]pyridin-2-yl)-1H-pyrazolyl-1-yl)ethyldimethyl glycinate] | – | – | – | C (1 g of solute is soluble in 10~30 mL of sovent) | potent tumor inhibitory effect | – | – | – | – | – | – | – | ≤ 18 h | – | – | rapidly converted
